Measurements reported in PMC3468400, “Pharmacokinetic profiles of artesunate following multiple intravenous doses of 2, 4, and 8 mg/kg in healthy volunteers: Phase 1b study” (Malaria Journal, 2012).
Where two headings read alike, the source gives them in different places. Each block holds one compound with its values, some of them ahead of it.

Experiments:
[1] = tested on: asexual blood stage parasites; conditions: cited from earlier work
[2] = Pharmacokinetics of dihydroartemisinin (DHA), active metabolite, in plasma after multiple intravenous AS doses, non-compartmental analysis; assay type: in vivo, human; conditions: for Total AUCD1-D3: DHA, days 1-3; for AUC: Mean AUC of DHA, range over doses, AS 2-8 mg/kg iv
Experimental: The study was a double blind, ascending multiple doses, alternating group, safety, tolerance, and PK study. […] When the injection was completed, the study nurse recorded tolerance of injection to include both inspection of site and subjects’ responses. Subjects were provided a light lunch at approximately 4 hours after dosing. Normal activities, excluding strenuous exercise, were permitted four hours after dosing. […] During the multiple-dose period, samples were collected immediately before morning dose on days 2 and 3 for additional trough values. All the samples were stored at −80 °C until shipment and were then shipped to a bio-analytical GLP laboratory, Midwest Research Institute (MRI), in Kansas City, MO, USA. The human use protocol numbers for the Phase 1 trial are: USUHS #G183RW; WRIAR #1128; and HSRRB #A-13276.
The analytes were extracted from human plasma with ethyl acetate. […] The reconstituted extracts were analysed on a Micromass Quattro II Mass Spectrometer in the positive ion electrospray ionization (+ESI) mode. […] This method employed a Varian Pursuit C18 column (150 x 2.0 mm, 5-μm particle size) and a gradient elution with the following mobile phases: A: 10 mM ammonium acetate in water with 1% formic acid and B: 10 mM ammonium acetate in acetonitrile with 1% formic acid, for the chromatographic separation.
Calibration standards and QC samples were analysed to evaluate the performance of the assay.
The maximum concentration in plasma for each subject was read directly from the experimental values. […] The values of the following PK parameters were derived by a non-compartmental method: the half-life (t½); mean residence time (MRT); the AUC from time zero to the last sampling time (AUCt); the AUC from time zero extrapolated to infinity (AUCinf); relative total systemic clearance (CL/F_obs); and volume of distribution during steady state (Vss/F_obs). A drug accumulation index was estimated from the AUC value on day 3 divided by the AUC value on day 1 (first multiple dose administration).

[3] = tested on: severe falciparum malaria; conditions: SEAQUAMAT, severe malaria patients, intravenous treatment; cited from earlier work
[4] = human, plasma, intravenous, all days and dose cohorts

- Mean peak concentrations of DHA over the three days, range ([2]; 4 mg/kg cohort): 2923 to 3018 ng/mL
- Mean peak concentrations of DHA over the three days, range ([2]; 8 mg/kg cohort): 5762 to 6056 ng/mL
- Total AUCD1-D3 ([2]; AS 2 mg/kg iv daily for 3 days, mean (CV%), n = 6): 6520 (18)
- Total AUCD1-D3 ([2]; AS 4 mg/kg iv daily for 3 days, mean (CV%), n = 6): 12092 (20)
- Total AUCD1-D3 ([2]; AS 8 mg/kg iv daily for 3 days, mean (CV%), n = 6): 27635 (34)
- time DHA detected in plasma ([2]; after each short-term infusion of AS, all volunteers): until six hours
- AUC(0-inf) ([2]; human, plasma, intravenous, 2 mg/kg, Mean AUCinf of DHA over three days, range, 2 mg/kg cohort): 2020 to 2380 ng·h/mL
- AUC(0-inf) ([2]; human, plasma, intravenous, 4 mg/kg, Mean AUCinf of DHA over three days, range, 4 mg/kg cohort): 3740 to 4390 ng·h/mL
- AUC(0-inf) ([2]; human, plasma, intravenous, 8 mg/kg, Mean AUCinf of DHA over three days, range, 8 mg/kg cohort): 8730 to 9700 ng·h/mL
- CL/F [2, 4]: 14.6 to 19.4 mL/min/kg
- Tmax [2, 4]: 0.16 to 0.29 h
- Cmax ([2]; human, plasma, iv, 2 mg/kg): 1740 ng/mL
- MRT ([2]; human, plasma, iv, 2 mg/kg, Day 1, DHA after AS 2 mg/kg iv daily for 3 days, 2 min infusion, mean (CV%), n = 6, NCA): 1.41 h
- AUC(0-inf) ([2]; human, plasma, iv, 2 mg/kg, Day 1, DHA after AS 2 mg/kg iv daily for 3 days, 2 min infusion, mean (CV%), n = 6, NCA, read-out: AUCinf): 2120 ng·h/mL
- half-life ([2]; human, plasma, iv, 2 mg/kg, Day 1, DHA after AS 2 mg/kg iv daily for 3 days, 2 min infusion, mean (CV%), n = 6, NCA, read-out: t1/2 elimination (converted)): 1.19 h
- MRT ([2]; human, plasma, iv, 2 mg/kg, Day 3, DHA after AS 2 mg/kg iv daily for 3 days, 2 min infusion, mean (CV%), n = 6, NCA): 1.39 h
- Tmax ([2]; human, plasma, iv, 2 mg/kg, read-out: Tmax): 0.29 h
- Cmax ([2]; human, plasma, iv, 4 mg/kg): 3020 ng/mL
- MRT ([2]; human, plasma, iv, 4 mg/kg, Day 1, DHA after AS 4 mg/kg iv daily for 3 days, 2 min infusion, mean (CV%), n = 6, NCA): 1.91 h
- AUC(0-inf) ([2]; human, plasma, iv, 4 mg/kg, Day 1, DHA after AS 4 mg/kg iv daily for 3 days, 2 min infusion, mean (CV%), n = 6, NCA, read-out: AUCinf): 4390 ng·h/mL
- half-life ([2]; human, plasma, iv, 4 mg/kg, Day 1, DHA after AS 4 mg/kg iv daily for 3 days, 2 min infusion, mean (CV%), n = 6, NCA, read-out: t1/2 elimination (converted)): 1.74 h
- MRT ([2]; human, plasma, iv, 4 mg/kg, Day 3, DHA after AS 4 mg/kg iv daily for 3 days, 2 min infusion, mean (CV%), n = 6, NCA): 1.57 h
- AUC(0-inf) ([2]; human, plasma, iv, 4 mg/kg, Day 3, DHA after AS 4 mg/kg iv daily for 3 days, 2 min infusion, mean (CV%), n = 6, NCA, read-out: AUCinf): 3960 ng·h/mL
- half-life ([2]; human, plasma, iv, 4 mg/kg, Day 3, DHA after AS 4 mg/kg iv daily for 3 days, 2 min infusion, mean (CV%), n = 6, NCA, read-out: t1/2 elimination (converted)): 1.24 h
- Tmax ([2]; human, plasma, iv, 4 mg/kg, read-out: Tmax): 0.25 h
- Cmax ([2]; human, plasma, iv, 8 mg/kg): 6060 ng/mL
- MRT ([2]; human, plasma, iv, 8 mg/kg, Day 1, DHA after AS 8 mg/kg iv daily for 3 days, 2 min infusion, mean (CV%), n = 6, NCA): 1.81 h
- AUC(0-inf) ([2]; human, plasma, iv, 8 mg/kg, Day 1, DHA after AS 8 mg/kg iv daily for 3 days, 2 min infusion, mean (CV%), n = 6, NCA, read-out: AUCinf): 9700 ng·h/mL
- half-life ([2]; human, plasma, iv, 8 mg/kg, Day 1, DHA after AS 8 mg/kg iv daily for 3 days, 2 min infusion, mean (CV%), n = 6, NCA, read-out: t1/2 elimination (converted)): 1.42 h
- MRT ([2]; human, plasma, iv, 8 mg/kg, Day 3, DHA after AS 8 mg/kg iv daily for 3 days, 2 min infusion, mean (CV%), n = 6, NCA): 1.78 h
- AUC(0-inf) ([2]; human, plasma, iv, 8 mg/kg, Day 3, DHA after AS 8 mg/kg iv daily for 3 days, 2 min infusion, mean (CV%), n = 6, NCA, read-out: AUCinf): 9200 ng·h/mL
- half-life ([2]; human, plasma, iv, 8 mg/kg, Day 3, DHA after AS 8 mg/kg iv daily for 3 days, 2 min infusion, mean (CV%), n = 6, NCA, read-out: t1/2 elimination (converted)): 1.34 h
- half-life ([2]; human, plasma, iv, 8 mg/kg, mean elimination half-life of DHA, range, range of means over three days and AS 2, 4, 8 mg/kg iv doses): 1.23 to 1.63 h
- Tmax ([2]; human, plasma, iv, 8 mg/kg, read-out: Tmax): 0.25 h
- AUC ([2]; human, plasma, iv, day 1): 2120 to 9700 ng·h/mL
- AUC ([2]; human, plasma, iv, day 3): 2380 to 9200 ng·h/mL
- mean elimination half-life of DHA, range ([2]; range of means over three days and AS 2, 4, 8 mg/kg iv doses): 1.19 to 1.91 h
SMILES: C[C@H]1[C@@H](O)O[C@@H]2O[C@@]3(C)CC[C@H]4[C@H](C)CC[C@@H]1[C@@]24OO3 [DHA, dihydroartemisinin]
- time to complete inhibition of parasite growth [1]: within two to four hours

SMILES: C=C[C@H]1C[N@@]2CC[C@H]1C[C@H]2[C@H](O)c1ccnc2ccc(OC)cc12 [quinine]
- mortality rate [3]: 22%
